Assay [1] deals with 3T3-L1 pre-adipocyte cells. The assay can be described thus: Inhibition of lipid accumulation in differentiated adipocytes (Oil Red O). In kind it is cell-based, mouse. Conditions: 3T3-L1 adipocytes; for inhibition at 2.5 µg/mL: 2.5 μg/mL. The method, then: One hundred thousand 3T3-L1 […] pre-adipocyte cells in Dulbecco's Modified Eagles Medium (DMEM) containing 10% Fetal Bovine Serum (FBS) were taken into each well of a 24-well plate and incubated for 48 h at 37° C. and 5% CO2. The differentiation of pre-adipocyte cells was initiated in a differentiation medium containing 10 μg/ml insulin, 1.0 μM dexamethasone, and 0.5 mM isobutylmethylxanthine (IBMX) for 48 h. After this the medium was replaced by DMEM containing 10 ug/ml insulin and incubated for 3 days. Then the differentiating cells were treated with […] of 7-hydroxyfrullanolide (1) or different natural analogs (structure numbers 3 to 11) or semi-synthetic analogs (structure numbers 12 to 25) of 7-HF. The cells were maintained in the medium for another 3-5 days. The cells incubated with 0.1% DMSO were considered as the vehicle control. After the incubation period, cells were washed with phosphate buffered saline (PBS) and fixed with 10% buffered formalin for 1 h at room temperature. One small aliquot of cell suspension was separated for cell counting in hemocytometer chamber. Fixed cells were stained with Oil Red O solution to measure the cellular neutral lipid accumulation. Briefly, cells were washed with PBS, fixed with 10% buffered formalin and stained with Oil Red O solution (0.5 g in 100 ml isopropanol) for […]. After removing the staining solution, the dye retained in the cells will be eluted into isopropanol and OD measured at 550 nm. The inhibition of fat accumulation in the treated cells was compared with the mock treated differentiated adipocytes. The treated and control cells were also analyzed and compared for inhibition of lipid accumulation visually under microscope and recorded digitally in suitable image capture system. The anti-adipogenic activity by 7-HF is depicted in Figure I and the percentage inhibition of lipid accumulation shown by 7-HF and its natural and semi-synthetic analogs is summarized in Table-1.

Assay [2] concerns 3T3-L1 pre-adipocyte cells. The assay can be described thus: Pro-lipolytic activity in differentiated adipocytes (free glycerol release). In kind it is cell-based, mouse. To be noted: increase in glycerol release. The method, then:
The lipolytic activity was assessed in mature adipocytes as per the procedure of Chemicon International, USA, by measuring free glycerol secreted into the culture medium. One hundred thousand 3T3-L1 […] pre-adipocyte cells in Dulbecco's Modified Eagles Medium (DMEM) containing 10% Fetal Bovine Serum (FBS) were taken into each well of a 24-well plate and incubated for 48 h at 37° C. and 5% CO2. The differentiation of pre-adipocyte cells was initiated in a differentiation medium containing 10 µg/ml insulin, 1.0 µM dexamethasone, and 0.5 mM isobutylmethylxanthine (IBMX). The cells were differentiated for 5 days and then the culture medium was removed. The monolayer was washed twice with wash solution (Hank's balanced salt solution), and then 250 µL of incubation solution (Hank's balanced salt solution plus 2% bovine serum albumin) was added to the wells in triplicate in presence or absence of 7-hydroxyfrullanolide or its analogs or the extracts containing 7-HF, and the cells were further incubated for 16 h. To measure lipolysis, 200 μL of free glycerol assay reagent was added to 25 µL of culture supernatants and controls containing glycerol standard. The samples and the controls were incubated for 15 min, and the absorbance was read at 540 nm. A standard curve constructed from the glycerol was used to calculate the concentration of free glycerol in the culture supernatants. The percentage increase in glycerol concentration in the sample solutions compared to the control containing the known concentrations of glycerol corresponds to the percentage acceleration of lipolysis by test compound.

Consider `CC1=C2[C@@H]3OC(=O)C(CN4CCCCC4)[C@]3(O)CC[C@@]2(C)CCC1` (stereo partly drawn) [Compound-19, (3aR,5aR,9bS)-3,3a,4,5,5a,6,7,8-octahydro-3a-hydroxy-5a,9-dimethyl-3-((piperidin-1-yl)methyl)naphtho[1,2-b]furan-2(9bH)-one], for which the inhibition at 2 µg/mL in assay [1] (Homo sapiens, 2.0 μg/mL) came to 23.3%. For the molecule `CC1=CCC[C@]2(C)CCC3=C(C=O)C(=O)OC3=C12` [Compound-12, (R)-2,4,5,5a,6,7-hexahydro-5a,9-dimethyl-2-oxonaphtho[1,2-b]furan-3-carbaldehyde], the inhibition at 2 µg/mL in assay [1] (Homo sapiens, 2.0 μg/mL) worked out at 55%. In addition, the “% acceleration of lipolysis” value in assay [2] (5 μg/mL) amounted to 45.2%. As to `C=C1C(=O)OC2C3=C(C)CCCC3(C)CCC12` (centres unmarked) [Compound-1, 3,3a,4,5,5a,6,7,8-octahydro-5a,9-dimethyl-3-methylenenaphtho[1,2-b]furan-2(9bH)-one], the inhibition at 2.5 µg/mL in assay [1] (Homo sapiens) came out at 19.4%. Also, the “% acceleration of lipolysis” value in assay [2] (10 μg/mL) came to 44.6%. Take `C=C1C(=O)O[C@@H]2[C@@]1(O)CC[C@@]1(C)CCCC(=C)[C@]21OO` [Compound-3, (3aR,5aR,9aR,9bR)-decahydro-9a-hydroperoxy-3a-hydroxy-5a-methyl-3,9-dimethylenenaphtho[1,2-b]furan-2(9bH)-one]: the inhibition at 2.5 µg/mL in assay [1] (Homo sapiens) amounted to 40.5%. Besides, the “% acceleration of lipolysis” value in assay [2] (5 μg/mL) worked out at 39.6%. For `C=C1C(=O)OC2C1(O)CCC1(C)CCCC3(C)OC213` (centres unmarked) [Compound-13, 4,5-epoxy-7-hydroxyfrullanolide], the “% inhibition of lipid accumulation” value in assay [1] (2.0 μg/mL) was 79.7%. In assay [2] (5 μg/mL), the “% acceleration of lipolysis” value is recorded as 52.8%.

With `CC1=C2[C@@H]3OC(=O)C(CN4CCOCC4)[C@]3(O)CC[C@@]2(C)CCC1` (stereo partly drawn) [Compound-17, (3aR,5aR,9bS)-3,3a,4,5,5a,6,7,8-octahydro-3a-hydroxy-5a,9-dimethyl-3-(morpholinomethyl)naphtho[1,2-b]furan-2(9bH)-one], the inhibition at 2 µg/mL in assay [1] (Homo sapiens, 2.0 μg/mL) was found to be 36.2%. As to `CC1(O)CCC[C@]2(C)CCC3=C(CN4CCCCC4)C(=O)OC3=C12` (stereo partly drawn) [Compound-20, (5aR)-5,5a,6,7,8,9-hexahydro-9-hydroxy-5a,9-dimethyl-3-((piperidin-1-yl)methyl)naphtho[1,2-b]furan-2(4H)-one], the inhibition at 2 µg/mL in assay [1] (Homo sapiens, 2.0 μg/mL) came out at 7%. On the same count and under the same terms, the result for `CC1=CCC[C@]2(C)CCC3=C(CBr)C(=O)OC3=C12` [Compound-14, (R)-3-(bromomethyl)-5,5a,6,7-tetrahydro-5a,9-dimethylnaphtho[1,2-b]furan-2(4H)-one] reads 14%.

Consider `CC1=C2[C@@H]3OC(=O)C(CN4CCOCC4)[C@]3(O)CC[C@@]2(C)CCC1O` (stereo partly drawn) [Compound-18, (3aR,5aR,9bS)-3,3a,4,5,5a,6,7,8-octahydro-3a,8-dihydroxy-5a,9-dimethyl-3-(morpholinomethyl)naphtho[1,2-b]furan-2(9bH)-one], for which the inhibition at 2.5 µg/mL in assay [1] (Homo sapiens) was 133%. For “Piperazine Bis-7-hydroxyfrullanolide [Compound-23]”, in assay [1] (1.0 μg/mL), the “% inhibition of lipid accumulation” value was 15.2%. As to `C=C1C(=O)O[C@H]2C3=C(C)C(O)CC[C@]3(C)CC[C@@]12O` (stereo partly drawn) [Compound-10, (3aR,5aR,9bS)-3,3a,4,5,5a,6,7,8-octahydro-3a,8-dihydroxy-5a,9-dimethyl-3-methylenenaphtho[1,2-b]furan-2(9bH)-one], in assay [1] (Homo sapiens, 2.0 μg/mL), the inhibition at 2 µg/mL is 45%. For `CC1=C2[C@@H]3OC(=O)C(CN4CCNCC4)[C@]3(O)CC[C@@]2(C)CCC1` (stereo partly drawn) [Compound-22, (3aR,5aR,9bS)-3,3a,4,5,5a,6,7,8-octahydro-3a-hydroxy-5a,9-dimethyl-3-((piperazin-1-yl)methyl)naphtho[1,2-b]furan-2(9bH)-one], the inhibition at 1 µg/mL in assay [1] (Homo sapiens, 1.0 μg/mL) came out at 15%. For `C=C1C(=O)O[C@H]2C3=C(C)C(=O)CC[C@]3(C)CC[C@@]12O` [Compound-11, (3aR,5aS,9bS)-3a,4,5,5a,6,7-hexahydro-3a-hydroxy-5a,9-dimethyl-3-methylenenaphtho[1,2-b]furan-2,8(3H,9bH)-dione], in assay [1] (Homo sapiens, 2.0 μg/mL), the inhibition at 2 µg/mL came out at 8%.

Usually inhibition stands for the drop in the measured response relative to a control, in per cent.

(Values after US20130136809A1, “7-HYRDROXYFRULLANOLIDE ITS ANALOGS FOR PREVENTION CONTROL AND TREATMENT OF METABOLIC DISORDERS” (LAILA NUTRACEUTICALS, priority 2009, published 2013).)
